The values below come from patent publication US20090203708A1, “NOVEL SUBSTITUTED-1-H-QUINAZOLINE-2,4-DIONE DERIVATIVES, PREPARATION METHOD THEREOF AND PHARMACEUTICAL COMPOSITION CONTAINING THE SAME” (Korea Research Institute of Chemical Technology, priority 2006, published 2009).

For one series, the system named is rotarod deficit. The experiment in a line: Rotarod deficit in mice. The class given is in vivo. As to conditions: for Rotarod Deficit TD50: mice, i.p. 30 min before testing. How it is done:
In order to examine the effects of the compounds of the present invention on the central nervous system and behavior, a rotarod test was performed as follows.
Mice were placed on a plastic rod having a node 1 inch in diameter (Ugo-Basile, Milano, Italy), followed by rotating the rod at a speed of 6 rpm. 30, 60, 90 and 120 min after the administration of test compounds, the mice that fell from the rotating rod within 1 min were counted to determine rotarod deficits (%) (Dunham et al., 1957).
Background: Falling from the rotarod earlier than controls is read as motor impairment.

The subject of series [1] is retention of a previously learned task. To be noted: rats, literature; cited from earlier work.
The subject of series [2] is extracellular glutamate levels in the frontal cortex and dorsal hippocampus. To be noted: literature; cited from earlier work.
Series [3] concerns rat maximal electroseizure threshold. As to conditions: literature; cited from earlier work.
Another series has as its target 5-HT6 receptors (Homo sapiens, UniProt P50406). To be noted: human 5-HT6 receptors, literature; cited from earlier work.
The target of another series is T1, D2 (hD2L receptor) (Homo sapiens, UniProt P14416).
T1 construct: purchased BioSignal Packard Inc., Montreal, Canada
T1 sequence (P14416 whole entry): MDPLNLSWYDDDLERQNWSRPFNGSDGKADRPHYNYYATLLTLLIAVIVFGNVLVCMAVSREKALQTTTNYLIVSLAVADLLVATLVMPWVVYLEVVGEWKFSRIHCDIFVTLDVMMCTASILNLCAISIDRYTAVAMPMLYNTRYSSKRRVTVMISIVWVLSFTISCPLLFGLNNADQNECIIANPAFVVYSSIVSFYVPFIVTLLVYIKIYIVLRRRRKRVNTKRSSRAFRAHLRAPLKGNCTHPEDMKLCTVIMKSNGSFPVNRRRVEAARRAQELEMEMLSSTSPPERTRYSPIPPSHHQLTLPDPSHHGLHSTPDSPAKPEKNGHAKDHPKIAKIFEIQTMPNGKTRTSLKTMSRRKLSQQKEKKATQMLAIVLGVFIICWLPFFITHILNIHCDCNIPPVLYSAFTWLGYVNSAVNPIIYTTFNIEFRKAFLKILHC
The series can be described thus: Radioligand binding assay, dopamine D2. As to conditions: [3H] spiperone 1 nM; read-out: Binding affinity IC50 D2. In a few lines:
(§1)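 Competition binding used human receptor membranes: hD2L with 1 nM [3H]spiperone, and hD4.2 with 0.06 nM [3H]YM-09151-2 in Tris-HCl pH 7.4 with Mg/EDTA/K/Ca. Nonspecific binding was defined with 10 μM haloperidol for D2 and 10 μM clozapine for D4. IC50 was fitted by nonlinear regression from 7–8 concentrations in duplicate, across three assays.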

In the next series the target is T2, D4 (hD4.2 receptor) (Homo sapiens, UniProt P21917, DEL265-296).
T2 construct: purchased BioSignal Packard Inc., Montreal, Canada
T2 sequence (P21917 with tags, fused parts or gaps DEL265-296): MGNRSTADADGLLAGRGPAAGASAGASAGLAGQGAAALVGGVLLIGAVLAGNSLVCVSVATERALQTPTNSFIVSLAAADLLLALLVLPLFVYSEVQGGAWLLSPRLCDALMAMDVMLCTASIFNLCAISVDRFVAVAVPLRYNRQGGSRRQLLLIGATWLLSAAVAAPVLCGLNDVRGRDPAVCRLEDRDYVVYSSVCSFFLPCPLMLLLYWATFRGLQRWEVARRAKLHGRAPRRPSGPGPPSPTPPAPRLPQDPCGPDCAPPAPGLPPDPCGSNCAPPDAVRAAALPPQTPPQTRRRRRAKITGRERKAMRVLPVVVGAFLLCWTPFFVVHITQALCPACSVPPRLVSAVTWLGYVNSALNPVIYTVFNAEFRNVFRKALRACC
The series can be described thus: Radioligand binding assay, dopamine D4. To be noted: [3H] YM-09151-2 0.06 nM; read-out: Binding affinity IC50 D4. In a few lines: as §1

For series [4], the target named is T3, HeLa cells transfected with human 5-HT6 receptor (Homo sapiens, UniProt P50406).
T3 construct: expressed in transfected cells; host or cells: HeLa
T3 sequence (P50406 whole entry): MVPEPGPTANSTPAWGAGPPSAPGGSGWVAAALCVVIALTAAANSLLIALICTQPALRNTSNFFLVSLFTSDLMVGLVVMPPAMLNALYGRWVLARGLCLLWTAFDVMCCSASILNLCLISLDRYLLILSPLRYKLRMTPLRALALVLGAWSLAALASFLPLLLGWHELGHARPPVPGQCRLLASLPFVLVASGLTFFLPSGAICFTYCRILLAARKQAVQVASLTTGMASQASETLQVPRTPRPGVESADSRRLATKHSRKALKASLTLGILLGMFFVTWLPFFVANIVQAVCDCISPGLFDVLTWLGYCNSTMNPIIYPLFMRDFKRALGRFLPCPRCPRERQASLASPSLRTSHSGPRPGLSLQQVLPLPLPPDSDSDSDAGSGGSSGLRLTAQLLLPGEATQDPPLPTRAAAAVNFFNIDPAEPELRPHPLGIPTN
The experiment in a line: Serotonin-stimulated cAMP accumulation in HeLa cells (EIA). The class given is cell-based. In general terms: cAMP levels reflect the balance of adenylyl cyclase and phosphodiesterase activity.

In another series the test system is lethality. The experiment in a line: Lethality (LD50) in mice. The format is in vivo. As to conditions: i.p.
In series [5] the target is 5-HT7 (human recombinant receptor, CHO-K1) (Homo sapiens, UniProt P34969). The series can be described thus: Radioligand binding assay, 5-HT7.
Chain of 5-HT7 (human recombinant receptor, CHO-K1) (P34969 whole entry): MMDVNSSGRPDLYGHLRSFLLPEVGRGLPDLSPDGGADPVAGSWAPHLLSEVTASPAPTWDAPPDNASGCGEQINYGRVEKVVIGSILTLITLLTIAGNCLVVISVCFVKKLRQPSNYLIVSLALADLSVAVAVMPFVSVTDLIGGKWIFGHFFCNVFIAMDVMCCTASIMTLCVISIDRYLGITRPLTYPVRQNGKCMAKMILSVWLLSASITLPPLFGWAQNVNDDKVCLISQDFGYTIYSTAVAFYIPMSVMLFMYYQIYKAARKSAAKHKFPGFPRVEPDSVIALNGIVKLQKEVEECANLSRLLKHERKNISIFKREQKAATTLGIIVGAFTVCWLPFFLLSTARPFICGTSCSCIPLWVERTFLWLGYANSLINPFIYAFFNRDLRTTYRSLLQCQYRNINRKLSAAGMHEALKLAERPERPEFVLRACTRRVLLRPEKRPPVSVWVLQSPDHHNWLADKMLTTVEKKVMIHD
For series [6], the target named is T4, 5-HT1a (human recombinant receptor, CHO-K1) (Homo sapiens, UniProt P08908).
T4 sequence (P08908 1-422): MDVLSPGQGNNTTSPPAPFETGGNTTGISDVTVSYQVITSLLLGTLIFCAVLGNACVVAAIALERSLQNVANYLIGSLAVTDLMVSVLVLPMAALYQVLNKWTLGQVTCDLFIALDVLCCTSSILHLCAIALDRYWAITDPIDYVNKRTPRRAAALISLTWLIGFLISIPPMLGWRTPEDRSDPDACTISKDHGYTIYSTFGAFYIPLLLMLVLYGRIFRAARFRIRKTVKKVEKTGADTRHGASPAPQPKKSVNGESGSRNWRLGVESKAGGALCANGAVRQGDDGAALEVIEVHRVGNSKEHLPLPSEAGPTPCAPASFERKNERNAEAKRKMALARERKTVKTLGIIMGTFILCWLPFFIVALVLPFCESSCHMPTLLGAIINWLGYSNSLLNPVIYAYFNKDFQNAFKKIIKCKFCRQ
The series can be described thus: Radioligand binding assay, 5-HT1a.

Series [7] concerns the target 5-HT2a (human recombinant receptor, CHO-K1) (Homo sapiens, UniProt P28223). The series can be described thus: Radioligand binding assay, 5-HT2a.
For series [8], the target named is T5, 5-HT2c (human recombinant receptor, CHO-K1) (Homo sapiens, UniProt P28335).
T5 sequence (P28335 33-458): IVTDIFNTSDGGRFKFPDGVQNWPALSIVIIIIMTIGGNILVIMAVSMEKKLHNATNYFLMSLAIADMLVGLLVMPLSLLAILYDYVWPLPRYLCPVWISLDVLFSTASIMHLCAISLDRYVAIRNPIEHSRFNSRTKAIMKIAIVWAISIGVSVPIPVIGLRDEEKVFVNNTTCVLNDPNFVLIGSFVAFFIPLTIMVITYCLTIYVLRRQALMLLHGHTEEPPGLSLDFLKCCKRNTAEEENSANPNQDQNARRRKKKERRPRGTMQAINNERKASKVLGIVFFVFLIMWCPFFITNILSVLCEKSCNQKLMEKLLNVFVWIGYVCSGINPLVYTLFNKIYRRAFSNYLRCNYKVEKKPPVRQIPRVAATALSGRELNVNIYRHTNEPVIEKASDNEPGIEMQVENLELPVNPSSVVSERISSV
The experiment in a line: Radioligand binding assay, 5-HT2c.

A further series deals with D1 receptor (Homo sapiens, UniProt P21728). The experiment in a line: Radioligand binding assay, dopamine D1.
Chain of D1 receptor (P21728 whole entry): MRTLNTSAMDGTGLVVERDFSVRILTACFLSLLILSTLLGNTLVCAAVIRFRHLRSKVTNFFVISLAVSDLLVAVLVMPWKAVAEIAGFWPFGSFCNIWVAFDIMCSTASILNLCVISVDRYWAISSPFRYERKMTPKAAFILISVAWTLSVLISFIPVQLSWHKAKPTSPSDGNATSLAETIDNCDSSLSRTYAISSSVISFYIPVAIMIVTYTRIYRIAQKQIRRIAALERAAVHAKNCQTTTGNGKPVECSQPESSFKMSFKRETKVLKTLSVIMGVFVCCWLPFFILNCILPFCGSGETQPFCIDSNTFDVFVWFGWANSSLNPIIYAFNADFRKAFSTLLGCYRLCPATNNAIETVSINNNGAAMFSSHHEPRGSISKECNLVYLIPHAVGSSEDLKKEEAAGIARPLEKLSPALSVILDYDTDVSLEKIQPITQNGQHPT
In a further series the target is D3 (hD3 receptor) (Homo sapiens, UniProt P35462). The experiment in a line: Radioligand binding assay, dopamine D3.
Chain of D3 (hD3 receptor) (P35462 whole entry): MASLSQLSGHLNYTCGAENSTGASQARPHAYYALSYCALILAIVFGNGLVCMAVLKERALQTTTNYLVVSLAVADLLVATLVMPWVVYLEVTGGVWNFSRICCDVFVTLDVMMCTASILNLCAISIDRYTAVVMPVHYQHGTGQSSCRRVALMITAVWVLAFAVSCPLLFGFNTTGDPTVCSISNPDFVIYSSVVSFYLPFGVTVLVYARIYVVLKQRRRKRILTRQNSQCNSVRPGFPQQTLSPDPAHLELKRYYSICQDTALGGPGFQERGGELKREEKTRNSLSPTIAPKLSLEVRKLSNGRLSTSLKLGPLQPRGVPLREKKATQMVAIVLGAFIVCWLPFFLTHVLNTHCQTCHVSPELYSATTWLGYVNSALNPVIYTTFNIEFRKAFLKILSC
In series [9] the test system is apomorphine-induced PPI disruption. The experiment in a line: Apomorphine-induced PPI disruption in rat.
Series [10] has as its target human serotonin 5-HT6 receptor (Homo sapiens, UniProt P50406). The series can be described thus: [3H]LSD binding assay for cloned 5-HT6 receptors.
Series [11] concerns yawning, stretching, and chewing. As to conditions: rats, literature; cited from earlier work.
The next series has as its system food intake. To be noted: literature; cited from earlier work.

For orientation: IC50 means the midpoint of a concentration-inhibition curve. The term inhibition denotes the drop in the measured response relative to a control, in per cent.

Chain of 5-HT6 receptors (P50406 whole entry): as the sequence (P50406 whole entry) above
Chain of human serotonin 5-HT6 receptor (P50406 whole entry): as above
Chain of 5-HT2a (human recombinant receptor, CHO-K1) (P28223 whole entry): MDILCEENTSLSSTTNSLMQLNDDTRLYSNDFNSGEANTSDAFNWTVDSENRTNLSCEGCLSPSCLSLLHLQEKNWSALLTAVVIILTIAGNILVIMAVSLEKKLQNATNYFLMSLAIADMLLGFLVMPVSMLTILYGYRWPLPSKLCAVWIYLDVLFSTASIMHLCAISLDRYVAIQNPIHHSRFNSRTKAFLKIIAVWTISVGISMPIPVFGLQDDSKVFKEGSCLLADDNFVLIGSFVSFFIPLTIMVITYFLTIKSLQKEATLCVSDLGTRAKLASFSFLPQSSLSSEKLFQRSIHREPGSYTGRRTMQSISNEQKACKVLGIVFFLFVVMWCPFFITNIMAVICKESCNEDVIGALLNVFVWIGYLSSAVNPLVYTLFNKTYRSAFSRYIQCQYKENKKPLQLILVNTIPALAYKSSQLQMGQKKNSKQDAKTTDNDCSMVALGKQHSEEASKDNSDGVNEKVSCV

In the case of `COc1ccc(NS(=O)(=O)c2sc3ccc(Cl)cc3c2C)cc1N1CCNCC1` [SB-271046, reference compound], the “Rotarod Deficit TD50” value with rotarod deficit was 112 mg/kg, ip. In addition, the “retention of a previously learned task in water maze” value in series [1] is reported as “significant improvement in retention of a previously learned task”. For the same molecule, the “extracellular glutamate levels in the frontal cortex and dorsal hippocampus” value in series [2] was “increased extracellular glutamate levels in the frontal cortex and dorsal hippocampus by several times”. Further, in [3], the anticonvulsant activity entry is on record as “possess anticonvulsant activity”.
Consider `COc1ccc2c(c1)c(CCN(C)C)cn2S(=O)(=O)c1ccccc1` [MS-245], for which the “pA2, antagonist” value on 5-HT6 receptors is recorded as 8.88.
With `C[C@H](c1ccccc1)n1c(=O)c2c(N3CCN(C)CC3)cc(Cl)cc2n(Cc2ccccc2)c1=O` [Example 40, 1-benzyl-7-chloro-5-(4-methyl-piperazin-1yl)-3-[(R)-1-phenyl-ethyl]-1H-quinazoline-2,4-dione], the IC50 was greater than 10 µM on D2 (hD2L receptor); greater than 10 µM at D4 (hD4.2 receptor); 7.42 µM in series [5]; 4.35 µM in series [6]; 0.266 µM in series [7]; 0.477 µM in [8]. Moreover, the half-maximal inhibitory concentration (IC50) at D1 receptor stood at 2.71 µM; at D3 (hD3 receptor), 0.983 µM; in [10] it was 0.0016 µM. In series [4], the cytotoxicity entry was “did not show any cytotoxicity at all”. Further, the “effect on serotonin-stimulated cAMP accumulation (in words)” value in series [4] (HeLa cells, FIG. 1) is listed as “inhibited serotonin-stimulated cAMP accumulation in a dose-dependent manner”. Also, the inhibition at 0.001 µM in series [4] (HeLa, read-out: inhibition of cAMP increase induced by 0.3 μM serotonin, compound 0.001 μM) was 0%. Moreover, the inhibition at 0.01 µM in series [4] (HeLa, read-out: inhibition of cAMP increase induced by 0.3 μM serotonin, compound 0.01 μM) turned out to be 35%. In addition, the inhibition at 0.1 µM in series [4] (HeLa, read-out: inhibition of cAMP increase induced by 0.3 μM serotonin, compound 0.1 μM) was 95%. In addition, the inhibition at 1 µM in series [4] (HeLa, read-out: inhibition of cAMP increase induced by 0.3 μM serotonin, compound 1 μM) worked out at 100%. In addition, the inhibition at 10 µM in series [4] (HeLa, read-out: inhibition of cAMP increase induced by 0.3 μM serotonin, compound 10 μM) was 100%. Also, the “Rotarod Deficit TD50” value in the series on rotarod deficit is recorded as 139 mg/kg, ip. In addition, the rotarod dysfunction with rotarod deficit (mouse, in vivo, ip, 150 mg/kg, 120 min) was 75%. Moreover, the “Lethal Degrees LD50” value in the series on lethality was >300 mg/kg, ip. The “effect of compound alone on PPI versus vehicle control” value in series [9] (rat, 2.5, 5, 10 and 20 mg/kg i.p. alone) is recorded as “no significant effects”. For the same molecule, in series [9] (rat, given 30 min before apomorphine), the “mean startle amplitude versus apomorphine positive control” value is “did not induce significant difference in mean startle amplitude”. The “effect of pretreatment on apomorphine-induced PPI disruption” value in [9] (rat, i.p. 30 min before apomorphine (2 mg/kg, i.p.), 2.5, 5, 10 and 20 mg/kg) is “found to inhibit apomorphine (2 mg/kg, i.p.)-induced PPI disruption”.
For the molecule `CNc1cc(NS(=O)(=O)c2ccc(N)cc2)nc(NC)n1` [Ro 04-6790], in series [3], the anticonvulsant activity result is reported as “possess anticonvulsant activity”. Also, the “induction of yawning, stretching, and chewing behavior” value in [11] is on record as “capable of inducing this same effect”. Besides, the “food intake by rats” value in the series with food intake is on record as “decreased food intake”.
